This is an account of results in ChEMBL document CHEMBL5465560, “Selectivity Literature for EUbOPEN Chemogenomic Library” (2024).

Assay [1] deals with T1, Serine/threonine-protein kinase D2 (Homo sapiens) (UniProt Q9BZL6).
T1 sequence (whole entry): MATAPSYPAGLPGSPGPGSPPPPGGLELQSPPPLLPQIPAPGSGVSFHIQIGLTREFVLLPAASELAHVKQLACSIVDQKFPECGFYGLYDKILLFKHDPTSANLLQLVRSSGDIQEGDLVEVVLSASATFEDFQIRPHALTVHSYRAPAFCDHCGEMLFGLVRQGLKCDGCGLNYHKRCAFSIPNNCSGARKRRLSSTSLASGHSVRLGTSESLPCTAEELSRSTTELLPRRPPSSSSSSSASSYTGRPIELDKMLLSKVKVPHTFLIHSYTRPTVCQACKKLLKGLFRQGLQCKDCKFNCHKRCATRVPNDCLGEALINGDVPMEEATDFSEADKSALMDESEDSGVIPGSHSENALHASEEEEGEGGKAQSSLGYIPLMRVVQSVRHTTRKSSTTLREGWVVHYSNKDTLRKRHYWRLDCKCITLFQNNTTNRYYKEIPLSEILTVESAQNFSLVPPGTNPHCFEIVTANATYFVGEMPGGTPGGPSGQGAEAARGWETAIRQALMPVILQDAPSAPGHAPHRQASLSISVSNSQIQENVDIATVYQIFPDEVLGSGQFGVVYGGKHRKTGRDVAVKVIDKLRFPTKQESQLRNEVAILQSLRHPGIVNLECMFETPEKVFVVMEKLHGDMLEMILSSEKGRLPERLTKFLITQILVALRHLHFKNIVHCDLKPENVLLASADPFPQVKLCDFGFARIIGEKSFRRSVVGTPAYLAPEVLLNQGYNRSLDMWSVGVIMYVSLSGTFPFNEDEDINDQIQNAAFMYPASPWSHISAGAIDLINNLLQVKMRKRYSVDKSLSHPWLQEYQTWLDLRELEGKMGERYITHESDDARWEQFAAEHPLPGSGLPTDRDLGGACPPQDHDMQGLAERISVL
Put plainly: Selectivity interaction (KinomeScan (DiscoverX)) EUB0001619a PRKD2. The following applies: at 1 µM.

Assay [2] has as its target T2, Serine/threonine-protein kinase ULK3 (Homo sapiens) (UniProt Q6PHR2).
T2 sequence (whole entry): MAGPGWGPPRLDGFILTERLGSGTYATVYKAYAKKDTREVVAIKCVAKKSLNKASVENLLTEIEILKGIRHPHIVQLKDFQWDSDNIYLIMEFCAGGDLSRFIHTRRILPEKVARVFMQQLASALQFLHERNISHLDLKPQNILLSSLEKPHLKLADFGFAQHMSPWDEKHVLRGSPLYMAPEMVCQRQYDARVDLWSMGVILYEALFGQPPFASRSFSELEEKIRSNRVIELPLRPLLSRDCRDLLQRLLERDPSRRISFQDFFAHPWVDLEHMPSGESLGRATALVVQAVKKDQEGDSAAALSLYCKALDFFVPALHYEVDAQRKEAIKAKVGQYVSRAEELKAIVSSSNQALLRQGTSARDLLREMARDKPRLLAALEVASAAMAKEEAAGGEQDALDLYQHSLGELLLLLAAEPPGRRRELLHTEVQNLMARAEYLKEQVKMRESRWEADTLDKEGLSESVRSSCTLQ
Briefly: Selectivity interaction (ActivX KiNativ screen (kinase selectivity in THP-1 cell lysates)) EUB0000639a ULK3. Type of assay: subcellular. The settings on record: lysate.

Assay [3] addresses T3, Histone-lysine N-methyltransferase EHMT2 (Homo sapiens) (UniProt Q96KQ7).
T3 sequence (whole entry): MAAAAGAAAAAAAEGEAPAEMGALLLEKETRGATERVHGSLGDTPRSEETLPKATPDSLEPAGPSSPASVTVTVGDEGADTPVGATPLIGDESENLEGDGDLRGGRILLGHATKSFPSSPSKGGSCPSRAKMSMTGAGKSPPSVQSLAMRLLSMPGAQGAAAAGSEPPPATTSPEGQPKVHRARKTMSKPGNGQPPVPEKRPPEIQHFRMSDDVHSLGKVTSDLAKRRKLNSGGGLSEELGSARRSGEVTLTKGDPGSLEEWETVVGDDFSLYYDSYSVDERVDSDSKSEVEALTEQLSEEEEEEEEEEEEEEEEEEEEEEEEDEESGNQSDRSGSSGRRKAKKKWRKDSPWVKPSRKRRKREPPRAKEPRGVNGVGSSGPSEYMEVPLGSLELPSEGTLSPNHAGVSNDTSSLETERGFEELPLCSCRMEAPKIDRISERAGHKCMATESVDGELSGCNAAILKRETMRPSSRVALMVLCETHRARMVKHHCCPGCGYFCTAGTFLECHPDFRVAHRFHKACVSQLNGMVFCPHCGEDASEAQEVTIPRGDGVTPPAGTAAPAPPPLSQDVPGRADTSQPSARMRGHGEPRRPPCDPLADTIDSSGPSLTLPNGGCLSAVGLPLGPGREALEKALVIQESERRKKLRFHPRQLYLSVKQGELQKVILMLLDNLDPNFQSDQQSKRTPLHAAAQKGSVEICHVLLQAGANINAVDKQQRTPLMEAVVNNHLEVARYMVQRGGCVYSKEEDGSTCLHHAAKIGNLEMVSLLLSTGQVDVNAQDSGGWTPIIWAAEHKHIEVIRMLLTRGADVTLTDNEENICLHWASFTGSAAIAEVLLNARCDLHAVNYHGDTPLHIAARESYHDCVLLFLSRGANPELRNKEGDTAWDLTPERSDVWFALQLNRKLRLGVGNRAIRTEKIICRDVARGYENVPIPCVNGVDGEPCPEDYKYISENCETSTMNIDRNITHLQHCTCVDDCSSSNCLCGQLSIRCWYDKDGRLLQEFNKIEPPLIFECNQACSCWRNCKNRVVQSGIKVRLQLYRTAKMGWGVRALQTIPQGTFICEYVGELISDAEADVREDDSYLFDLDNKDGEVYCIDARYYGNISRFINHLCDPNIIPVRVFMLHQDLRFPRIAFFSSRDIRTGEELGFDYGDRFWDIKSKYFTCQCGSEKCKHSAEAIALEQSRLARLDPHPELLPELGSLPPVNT
Briefly: Selectivity interaction (Methyltransferase screen (radiometric assays, panel of 8 PRMTs, 21 protein lysine methyltransferases, 3 DNA methyltransferases, and one RNA methyltransferase)) EUB0000271b EHMT2.

In assay [1], `N#Cc1cccc(-c2c[nH]c3ncnc(N4CCOCC4)c23)c1` yielded a % of control of 100%.
As for `CC[C@@H]1[C@H](F)C(=O)N[C@@H]1COc1nccc2cc(C(N)=O)c(OC)cc12` [ZIMLOVISERTIB], the % of inhibition was 11.3% in assay [2] (at 0.01 µM); 2.1% in assay [2] (at 0.04 µM); 3.4% in assay [2] (at 0.2 µM); 5.1% in assay [2] (at 1 µM); -3.4% in assay [2] (at 5 µM).
Regarding `Cc1cc(C)cc([C@@H]2c3cc(C)ccc3NC(=O)CN2C(=O)c2ccc(Br)s2)c1`, the % of activity in assay [3] (at 1 µM) stood at 96%; in assay [3] (at 10 µM), 96.3%.
